Data from patent US8148392B2, “2-indolyl imidazo [4,5-d] phenanthroline derivatives and their use in the treatment of cancer” (Lorus Therapeutics Inc., priority 2005, dated 2012).
Entries after “also recorded” stand apart in the source; their conditions may differ. Where two headings read alike, the source gives them in different places. One block for each molecule: values may come before it.

Columns and labels:
[1] = tested on: human colon carcinoma HT-29 cells; experiment: XTT cell proliferation assay, HT-29; assay type: cell-based
Method in brief: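 HT-29 cells in McCoy's 5A with 10% FBS, 37° C., 5% CO2, exposed to varying compound concentrations for 6-7 days. Viable cells quantified by XTT reduction to formazan; growth inhibition expressed as IC50 (μM).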

KLF4 [2] = experiment: KLF4 gene expression by RT-PCR, HT-29; assay type: cell-based, human; details: for KLF4 expression change with zinc supplement: HT-29, 1 μM compound plus 35 μM ZnCl2, 16 hr; for KLF4 gene expression, change: HT-29, 1 μM, in words; for KLF4 (gene fold increase): HT-29, relative to vehicle control as 1
Description: To determine whether compounds of Formula I can chelate zinc in cells, the effect of compound 3 on the expression level of a zinc-regulated gene, metallothionein 1A (MT1A), in human colon carcinoma HT-29 cells, was determined. HT-29 cells, 1×10^6 cells in 10 mL volume of the growth medium were seeded in 100 mm dishes and incubated overnight at 37° C. The medium was removed and replaced with the growth medium containing 35 μM ZnCl2, 1 μM or 4 μM TPEN (NNNN-tetrakis(2-pyridyl-methyl)ethylenediamine), or 1 μM or 4 μM compound 3, or 0.1% DMSO vehicle control. After incubation for 16 hours, the cells were detached by trypsinization, collected by centrifugation and washed once with PBS. Total RNA was extracted by using TRIZOL (Invitrogen, Life Technologies, Carlsbad, Calif.), following manufacturer's instruction, and the level of MT1A mRNA was measured by real time PCR using the comparative CT method as follows. First strand cDNA was synthesized from 200 ng total RNA in Biometra Tpersonal Thermal Cycler (Abgene, UK), using pd(N)6 random hexamer (Amersham Biosciences, Piscataway, N.J.) and SuperScript™ II Reverse Transcriptase kit (Invitrogen) by following manufacturer's protocol. Real-time PCR was performed in ABI Prism 7000 Sequence Detection System (Applied Biosystems Inc., ABI, Foster City, Calif.), using 5 μL of cDNA synthesized by above-mentioned procedure and respective TaqMan® Gene Expression Assays (ABI) by following ABI TaqMan® Universal PCR master mix protocol.
The ability of compounds of Formula I to modulate the mRNA level of a transition metal-regulated tumour suppressor gene was determined in vitro as follows. Compound 3 was tested to determine its ability to increase the expression of zinc-regulated tumour suppressor KLF4 mRNA in colon carcinoma HT-29 cells. […] HT-29 cells were incubated for 16 hours with DMSO as a vehicle control, 35 μM ZnCl2, 1 μM or 4 μM of compound 3, or 1 μM or 4 μM TPEN for 16 hours and mRNA was extracted from the cells as described in Example 19. The expression of KLF4 mRNA was analyzed by real-time polymerase chain reaction using the comparative CT method also as described in Example 19. Compound 3 induced the expression of KLF4 mRNA (approximately 8-fold) in HT-29 cells compared with HT-29 cells treated with vehicle alone (See FIG. 8).
(§1) Gene expression levels of KLF4, induced by compounds of Formula I, were also examined on various cancer cell types by RT-PCR. Fold changes in KLF4 in compound-treated cells were expressed relative to KLF4 expression in vehicle control-treated cells of respective cell type as “1”. […] Additionally, xenografts of MDA-MB-435 implanted into mammary fat pads of female SCID mice have shown immunohistochemical staining consistent with melanocytic origin (Ellison G, Klinowska T, Westwood R F, Docter E, French T, Fox J C. (2002) Mol Pathol. 55(5): 294-299). The breast cancer cell line MDA-MB-435 may be expected to function differently than the other breast cancer cell lines.
The change in gene expression of KLF4 upon zinc depletion following compound 3 treatment was determined by RT-PCR as follows. HT-29 cells were treated with 1 μM compound 3 for the indicated time (FIG. 39A) or HT-29 cells were treated with 1 μM compound 3, 35 μM ZnCl2 or compund 3 and ZnCl2 together for 16 hr (FIG. 39B). Total RNA was extracted and gene expression level was determined by RT-PCR.
Fold change in KLF4 gene expression was presented relative to KLF4 expression in non-specific siRNA-transfected cells treated with vehicle control.

KLF4 [3] = experiment: KLF4 gene expression by RT-PCR, H-460; assay type: cell-based, human; details: for KLF2, KLF4 and KLF6 gene expression: H-460, 2.5 μM; for KLF4 (gene fold increase): H-460, relative to vehicle control as 1
Text: as §1
Expressions of KLF2, 4 and 6 genes in H-460 cells, treated with vehicle control or 2.5 μM compound 3 or compound 7, were measured by RT-PCR. Gene expression was presented relative to respective gene expression in vehicle control-treated group as “1”.

KLF4 [4] = experiment: KLF4 gene expression by RT-PCR, DU-145; assay type: cell-based, human; details: DU-145, relative to vehicle control as 1
Text: as §1

KLF4 [5] = experiment: KLF4 gene expression by RT-PCR, MDA-MB-435; assay type: cell-based, human; details: MDA-MB-435, relative to vehicle control as 1
Text: as §1

[6] = Homo sapiens, HT-29, XTT, 6-7 days, Table 3, read-out: IC50
[7] = Homo sapiens, HT-29, XTT, as Example 13, Table 7, read-out: IC50
[8] = Homo sapiens, HT-29 colon, Table 8, read-out: IC50 (cell growth inhibition)

Compound: Cc1[nH]c2ccccc2c1-c1nc2c3cccnc3c3ncccc3c2[nH]1 [Compound 3]
IC50 [1, 6]: 600 nM
IC50 [1, 7]: 0.6 µg/mL
IC50 [1, 8]: 710 nM
KLF4 expression change with zinc supplement (KLF4 [2]): reversed by addition of zinc supplement
KLF4 gene expression, change (KLF4 [2]): Time-dependent increase in KLF4; also recorded: increased expression of KLF4
induction of KLF4 mRNA (KLF4 [2]; HT-29, 16 hours, 1 μM or 4 μM, versus vehicle): approximately 8 fold
KLF4 (gene fold increase) (KLF4 [2]): 6.5 fold
KLF4 gene expression after MTF-1 gene knock-down by siRNA (KLF4 [2]; HT-29 transfected with MTF-1 siRNA): still increased
KLF2, KLF4 and KLF6 gene expression (KLF4 [3]): increased KLF4 as most significantly changed gene
KLF4 (gene fold increase) (KLF4 [3]): 3.4 fold
KLF4 (gene fold increase) (KLF4 [4]): 9.16 fold
KLF4 (gene fold increase) (KLF4 [5]): 9.09 fold

IC50 [1, 6]: 700 nM
IC50 [1, 7]: 0.7 µg/mL
IC50 [1, 8]: 800 nM
Compound: Cc1[nH]c2ccc(F)cc2c1-c1nc2c3cccnc3c3ncccc3c2[nH]1 [Compound 7]
KLF4 expression change with zinc supplement (KLF4 [2]): reversed by addition of zinc supplement
KLF4 gene expression, change (KLF4 [2]): increased expression of KLF4
KLF4 (gene fold increase) (KLF4 [2]): 8.66 fold
KLF2, KLF4 and KLF6 gene expression (KLF4 [3]): increased KLF4 as most significantly changed gene
KLF4 (gene fold increase) (KLF4 [3]): 2.1 fold
KLF4 (gene fold increase) (KLF4 [4]): 11.24 fold
KLF4 (gene fold increase) (KLF4 [5]): 11.71 fold

IC50 ([1]; HT-29, XTT, as Example 13, Table 7): 0.15 µg/mL
IC50 ([1]; HT-29 colon, Table 8, read-out: IC50 (cell growth inhibition)): 150 nM
Compound: CCc1cccc2c(-c3nc4c5cccnc5c5ncccc5c4[nH]3)c(C(C)(C)C)[nH]c12 [Compound 64]
KLF4 expression change with zinc supplement (KLF4 [2]): reversed by addition of zinc supplement
KLF4 gene expression, change (KLF4 [2]): increased expression of KLF4
KLF4 (gene fold increase) (KLF4 [2]): 5.96 fold
KLF4 (gene fold increase) (KLF4 [3]): 1.64 fold
KLF4 (gene fold increase) (KLF4 [4]): 6.75 fold
KLF4 (gene fold increase) (KLF4 [5]): 7.59 fold
